Experimental data reported in PubChem BioAssay AID1963850 (Molecular Pharmacology Branch, DTP, NCI, 2024).
“And” between values parts separate entries of the source, which are not always exact repeats. Equal entries are not always repeated.

System: 192522-019-R-J2-PDC complex tumor spheroid viability
Test: Anticancer human tumor 192522-019-R-J2-PDC patient-derived colon adenocarcinoma cell line growth inhibition [POLQ]
Conditions: for viability, T/C: stronger effect = lower value
Protocol: Multicellular complex tumor spheroid response to Polymerase (POL) inhibitors (novobiocin, ART-558, RP6685) in combination with a variety of drugs and investigational agents in selected tumor cell lines
The POL inhibitors (novobiocin, ART-558, and RP6685) were evaluated both individually and in combination with standard of care and investigational anticancer small molecules within a complex spheroid model of solid tumors. . Complex spheroids include a stromal component modeled by human endothelial cells (HUVEC) and fibroblasts modeled by human mesenchymal stem cells (MSCs). The concentration ranges selected for each drug and investigational agent were based upon clinically achievable concentrations if the clinical Cmax of the agent was known.
Compounds. The drugs and investigational agents: novobiocin (NSC847541), ART-558 (NSC835418), RP-6685 (NSC848927), peposertib (NSC802822), ceralasertib (NSC780249), elimusertib (NSC800525), camonsertib (NSC841442), AZD-1390 (NSC803789), olaparib (NSC753686), talazoparib (NSC767125), rucaparib (NSC756644), sotorasib (NSC818433), MRTX-1133 (NSC836407), SN-38 (NSC673596), topotecan (NSC609699), epotoside (NSC141540), doxorubicin (NSC123127), gemcitabine (NSC613327), 5-fluorouracil (NSC19893), paclitaxel (NSC125973), vemurafenib (NSC761431), MSA-2 (NSC828583), SN-011 (NSC837082), adavosertib (NSC754352), prexasertib (NSC758257), carboplatin (NSC241240) and oxaliplatin (NSC266046), were obtained from the National Cancer Institute (NCI) Developmental Therapeutics Program Chemical Repository (21). The FDA-approved anticancer drug set is available from the Developmental Therapeutics Program at https://dtp.cancer.gov/organization/dscb/obtaining/. […] The stock solutions were prepared in dimethyl sulfoxide (DMSO, Sigma-Aldrich, St. Louis, MO, cat. D2650), except for the platinum compounds which were prepared in saline (Quality Biological, Gaithersburg, MD, cat. 114-055-101), at 800-fold the tested concentration and stored at -70 degrees C prior to their use. All drugs and investigational agents were tested over a range starting from a high concentration at or near the clinical Cmax and decreasing in half-log increments. If the clinical Cmax for an agent had not been determined, the highest concentration tested was 10 microM, except for SN-38, which was tested at a high concentration of 1 microM.
Cell Culture. All cells were maintained in an incubator at 37 degrees C and 5% CO2 with 95% humidity. The PDC lines were cultured according to standard operating procedures established by the NCI PDMR (https://pdmr.cancer.gov). Table 3 of the manuscript, lists the cell lines along with the number of the three cell types plated to form the mct-spheroids and media for tumor cell growth. After thawing, all PDC lines, except 997537-175-T-J1-PDC and 415267-285-R-J2-PDC, were cultured in Matrigel-coated flasks prepared with a working solution of 1X Ham's F-12 nutrient mix, without supplementation (Thermo Fisher Scientific, cat. 11765054), 100 U/mL penicillin-streptomycin (Thermo Fisher Scientific, cat. 15140122), and 2.5% Matrigel (Corning Inc., Corning, NY, cat. 354248) for the first three passages. The two PDC lines 997537-175-T-J1-PDC and 415267-285-R-J2-PDC were cultured on uncoated flasks. The 857933-349-R-J2-PDC line was cultured in 6C/Colon 1B media containing advanced DMEM/F-12 (Thermo Fisher Scientific, cat. 12634028), 10 mM HEPES (Thermo Fisher Scientific, cat. 15630080), 1X GlutaMAX supplement (Thermo Fisher Scientific, cat. 35050061), 0.1 mg/mL primocin (InvivoGen, San Diego, CA, cat. ant-pm-2), 10% defined fetal bovine serum, heat inactivated (HyClone Laboratories Inc., Logan, UT, cat. SH30070.03HI), 50% L-WRN conditioned media (ATCC, cat. CRL-3276), 1.25 mM N-Acetyl-L-cysteine (Sigma-Aldrich, cat. A9165), 10 mM nicotinamide (Sigma-Aldrich, cat. N0636), 1X B-27 supplement (Thermo Fisher Scientific, cat. 17504044), 1X N-2 supplement (Thermo Fisher Scientific, cat. […]

[1] = curve of first compound, second compound 0.0316 µM
[2] = curve of first compound, second compound 0.1 µM
[3] = curve of first compound, second compound 0.316 µM
[4] = curve of first compound, second compound 1 µM
[5] = curve of first compound, second compound 3.16 µM
[6] = curve of first compound, second compound 10 µM
[7] = second compound 0.0316 µM, first compound 0.0316 µM
[8] = second compound 0.0316 µM, first compound 0.1 µM
[9] = second compound 0.0316 µM, first compound 0.316 µM
[10] = second compound 0.0316 µM, first compound 1 µM
[11] = second compound 0.0316 µM, first compound 3.16 µM
[12] = second compound 0.0316 µM, first compound 10 µM
[13] = second compound 0.1 µM, first compound 0.0316 µM
[14] = second compound 0.1 µM, first compound 0.1 µM
[15] = second compound 0.1 µM, first compound 0.316 µM
[16] = second compound 0.1 µM, first compound 1 µM
[17] = second compound 0.1 µM, first compound 3.16 µM
[18] = second compound 0.1 µM, first compound 10 µM
[19] = second compound 0.316 µM, first compound 0.0316 µM
[20] = second compound 0.316 µM, first compound 0.1 µM
[21] = second compound 0.316 µM, first compound 0.316 µM
[22] = second compound 0.316 µM, first compound 1 µM
[23] = second compound 0.316 µM, first compound 3.16 µM
[24] = second compound 0.316 µM, first compound 10 µM
[25] = second compound 1 µM, first compound 0.0316 µM
[26] = second compound 1 µM, first compound 0.1 µM
[27] = second compound 1 µM, first compound 0.316 µM
[28] = second compound 1 µM, first compound 1 µM
[29] = second compound 1 µM, first compound 3.16 µM
[30] = second compound 1 µM, first compound 10 µM
[31] = second compound 3.16 µM, first compound 0.0316 µM
[32] = second compound 3.16 µM, first compound 0.1 µM
[33] = second compound 3.16 µM, first compound 0.316 µM
[34] = second compound 3.16 µM, first compound 1 µM
[35] = second compound 3.16 µM, first compound 3.16 µM
[36] = second compound 3.16 µM, first compound 10 µM
[37] = second compound 10 µM, first compound 0.0316 µM
[38] = second compound 10 µM, first compound 0.1 µM
[39] = second compound 10 µM, first compound 0.316 µM
[40] = second compound 10 µM, first compound 1 µM
[41] = second compound 10 µM, first compound 3.16 µM
[42] = second compound 10 µM, first compound 10 µM
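Further: spheroids exposed to drugs for seven days before reading.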
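Wherever viability, T/C is given: 100% = DMSO vehicle control viability in luminescence.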

In the case of `CC1COCCN1c1cc(-c2ccnn2C)c2ccnc(-c3ccn[nH]3)c2n1` (stereo not drawn), the viability, T/C (compound 0.0316 µM) is reported as 97.7% and 93.8% and 106%, the viability, T/C (compound 0.1 µM) is reported as 76% and 76.1% and 87.4% and the viability, T/C (compound 0.316 µM) is reported as 43.4% and 45% and 54.1%. For the same compound, the viability, T/C (compound 1 µM) was 33.5% (2×) and 32.2%, the viability, T/C (compound 3.16 µM) was 35.1% and 40.1% and 41% and the viability, T/C (compound 10 µM) was 48% and 44.6% and 47.2%. The IC50 (curve of compound) was 246 nM and 256 nM and 400 nM.

For `C=CC(=O)N1CCN(c2nc(=O)n(-c3c(C)ccnc3C(C)C)c3nc(-c4c(O)cccc4F)c(F)cc23)C(C)C1` (stereo not drawn), the viability, T/C (compound 0.0316 µM) was 107% (2×) and 105%, the viability, T/C (compound 0.1 µM) was 92.4% and 101% and 94.3% and the viability, T/C (compound 0.316 µM) was 95% and 94.1% and 97.7%. The viability, T/C (compound 1 µM) was 106% and 102% and 109%, the viability, T/C (compound 3.16 µM) was 104% and 113% and 112% and the viability, T/C (compound 10 µM) was 104% and 109% and 108%. The IC50 (curve of compound) was greater than 10000 nM.

Work on `CCc1cc2c(N3CCc4c(cc(Cn5ccnc5)cc4-c4cn(C)nc4C(F)(F)F)C3=O)cc(C)nc2c(OC)n1` + COC1C(OC(N)=O)C(O)C(Oc2ccc3c(O)c(NC(=O)c4ccc(O)c(CC=C(C)C)c4)c(=O)oc3c2C)OC1(C)C yielded an IC50 [1] greater than 10000 nM, an IC50 [2] greater than 10000 nM and an IC50 [3] greater than 10000 nM. It also gave an IC50 [4] greater than 10000 nM, an IC50 [5] greater than 10000 nM and an IC50 [6] greater than 10000 nM. It also gave a viability, T/C [7] of 95.6%, a viability, T/C [8] of 90.6% and a viability, T/C [9] of 90.5%. It also gave a viability, T/C [10] of 82.8%, a viability, T/C [11] of 79.2% and a viability, T/C [12] of 60.7%. For the same compound, the viability, T/C [13] was 94.2%, the viability, T/C [14] was 94.3% and the viability, T/C [15] was 81.5%. For the same compound, the viability, T/C [16] was 82.4%, the viability, T/C [17] was 72.3% and the viability, T/C [18] was 67.4%. For the same compound, the viability, T/C [19] was 101%, the viability, T/C [20] was 96.7% and the viability, T/C [21] was 96.1%. For the same compound, the viability, T/C [22] was 81.6%, the viability, T/C [23] was 82.6% and the viability, T/C [24] was 69.7%. It also gave a viability, T/C [25] of 99%, a viability, T/C [26] of 96.8% and a viability, T/C [27] of 85.1%. For the same compound, the viability, T/C [28] was 84.3%, the viability, T/C [29] was 68.5% and the viability, T/C [30] was 72.4%. It also gave a viability, T/C [31] of 95.6%, a viability, T/C [32] of 98.8% and a viability, T/C [33] of 87.1%. The viability, T/C [34] was 83.9%, the viability, T/C [35] was 74.6% and the viability, T/C [36] was 66.2%. The viability, T/C [37] was 102%, the viability, T/C [38] was 91.4% and the viability, T/C [39] was 87.5%. For the same compound, the viability, T/C [40] was 80.6%, the viability, T/C [41] was 88.9% and the viability, T/C [42] was 73.4%.

For `CC1COCCN1c1cc(C2(O)CC3CCC(C2)O3)c2cnn(-c3ccn[nH]3)c2n1` (stereo not drawn) + Cc1cccc(N(C)C(=O)C2C(O)CCN2c2nc(C)cc(C(F)(F)F)c2C#N)c1, the IC50 [1] was 252 nM, the IC50 [2] was 256 nM and the IC50 [3] was 298 nM. It also gave an IC50 [4] of 467 nM, an IC50 [5] of 548 nM and an IC50 [6] of 291 nM. It also gave a viability, T/C [7] of 117%, a viability, T/C [8] of 70.1% and a viability, T/C [9] of 47.8%. It also gave a viability, T/C [10] of 29.2%, a viability, T/C [11] of 43.7% and a viability, T/C [12] of 46.3%. For the same compound, the viability, T/C [13] was 95.8%, the viability, T/C [14] was 73.1% and the viability, T/C [15] was 42%. The viability, T/C [16] was 35.9%, the viability, T/C [17] was 37.3% and the viability, T/C [18] was 64.2%. It also gave a viability, T/C [19] of 101%, a viability, T/C [20] of 82.9% and a viability, T/C [21] of 49.2%. The viability, T/C [22] was 33.8%, the viability, T/C [23] was 43.5% and the viability, T/C [24] was 52.3%. It also gave a viability, T/C [25] of 94.1%, a viability, T/C [26] of 85.5% and a viability, T/C [27] of 54.8%. For the same compound, the viability, T/C [28] was 34.5%, the viability, T/C [29] was 38.6% and the viability, T/C [30] was 54.3%. The viability, T/C [31] was 98.3%, the viability, T/C [32] was 89.3% and the viability, T/C [33] was 55.1%. The viability, T/C [34] was 32.1%, the viability, T/C [35] was 46.8% and the viability, T/C [36] was 56.8%. It also gave a viability, T/C [37] of 102%, a viability, T/C [38] of 78.1% and a viability, T/C [39] of 48.8%. For the same compound, the viability, T/C [40] was 32.8%, the viability, T/C [41] was 51.7% and the viability, T/C [42] was 50%.
